Measured values published in the NIST ThermoML archive (doi:10.1021/je5007696).

Assay: refractive index (Na D-line) (dimensionless); xn = mol fraction of the nth substance listed
Conditions: 100 kPa, Liquid, Standard Abbe refractometry

CCC(C)=O [butanone] + CCCCO
refractive index
Conditions	x1 = 0.0997	x1 = 0.1999	x1 = 0.3003	x1 = 0.4008	x1 = 0.5003	x1 = 0.6001	x1 = 0.6992	x1 = 0.7991	x1 = 0.899	x1 = 1
288.15 K	1.39943	1.3975	1.39558	1.39362	1.39169	1.38971	1.38771	1.38569	1.38364	1.38153
293.15 K	1.39733	1.39533	1.39333	1.39131	1.38933	1.38729	1.38525	1.38316	1.38108	1.37892
298.15 K	1.39524	1.39315	1.39107	1.38899	1.38696	1.38486	1.38276	1.38062	1.37849	1.37631
303.15 K	1.3931	1.39095	1.38882	1.38669	1.38457	1.38241	1.38025	1.37807	1.37589	1.37366
308.15 K	1.39096	1.38872	1.38651	1.38433	1.38215	1.37995	1.37775	1.37551	1.3733	1.37102
313.15 K	1.38881	1.38649	1.38421	1.38196	1.37973	1.37748	1.37522	1.37293	1.37065	1.36834
318.15 K	1.38664	1.38427	1.38192	1.37958	1.37728	1.37496	1.37265	1.37031	1.36798	1.36565
323.15 K	1.38447	1.38203	1.37959	1.37718	1.3748	1.37244	1.37008	1.36769	1.36531	1.36294
